Test results reported in ChEMBL document CHEMBL5131391, “One-pot three-component synthesis of novel pyrazolo[3,4-b]pyridines as potent antileukemic agents” (Eur J Med Chem, 2022).
Calls of active or inactive are those of the source. No cut-off for these calls is given here.

Key:
K562 = experiment: Antiproliferative activity against human K562 cells assessed as reduction in cell viability incubated for 72 hrs by resazurin dye based assay; format: functional; details: K562, 72 h
MV4-11 = experiment: Antiproliferative activity against human MV4-11 cells assessed as reduction in cell viability incubated for 72 hrs by resazurin dye based assay; format: functional; details: MV4-11, 72 h
CCRF-CEM = experiment: Antiproliferative activity against human CEM cells assessed as reduction in cell viability incubated for 72 hrs by resazurin dye based assay; format: functional
RS4-11 [1] = experiment: Antiproliferative activity against human RS4-11 cells assessed as reduction in cell viability incubated for 72 hrs by resazurin dye based assay; format: functional; details: RS4-11, 72 h
RS4-11 [2] = experiment: Induction of cell cycle arrest in human RS4-11 cells assessed as accumulation of cells in G2/M phase at 1.25 to 10 uM measured after 72 hrs by PI staining based flow cytometry analysis; format: functional; details: dose 1.25-10 µM
RS4-11 [3] = experiment: Induction of cell cycle arrest in human RS4-11 cells assessed as accumulation of cells in G2/M phase measured after 48 hrs by PI staining based flow cytometry analysis; format: functional; details: dose 1.25-10 µM, DDE = dose-dependent effect
ML-2 = experiment: Antiproliferative activity against human ML-2 cells assessed as reduction in cell viability incubated for 72 hrs by resazurin dye based assay; format: functional; details: ML-2, 72 h
RS4-11 [4] = experiment: Downregulation of HOXA9 protein expression in human RS4-11 cells at 5 to 20 uM measured after 24 hrs by Western blot analysis; format: functional, cell-based; details: dose 5-20 µM
RS4-11 [5] = experiment: Downregulation of MEIS1 protein expression in human RS4-11 cells at 5 to 20 uM measured after 24 hrs by Western blot analysis; format: functional, cell-based; details: dose 5-20 µM
KOPN-8 = experiment: Antiproliferative activity against human KOPN-8 cells assessed as reduction in cell viability incubated for 72 hrs by resazurin dye based assay; format: functional; details: KOPN-8, 72 h
RS4-11 [6] = experiment: Induction of cell cycle arrest in human RS4-11 cells assessed as accumulation of cells in subG1 phase at 1.25 to 10 uM measured after 72 hrs by PI staining based flow cytometry analysis; format: functional; details: dose 1.25-10 µM

Compound: COc1ccc(-c2c(C#N)c(-c3ccccc3)nc3c2c(-c2ccccc2)nn3-c2ccccc2)cc1OC
- IC50 (K562): > 25000 nM
- IC50 (MV4-11): > 25000 nM
- IC50 (CCRF-CEM): > 25000 nM

Compound: COc1ccc(-c2nc3c(c(-c4ccccc4)nn3-c3ccccc3)c(-c3ccc(O)cc3)c2C#N)cc1
- IC50 (K562): 2100 nM
- IC50 (RS4-11 [1]): 1000 nM
- IC50 (MV4-11): 1600 nM
- IC50 (CCRF-CEM): 6700 nM
- Activity (RS4-11 [2]): Active
- Activity (RS4-11 [3]): Dde
- IC50 (ML-2): 400 nM
- Activity (RS4-11 [4]): Active
- Activity (RS4-11 [5]): Active
- IC50 (KOPN-8): 200 nM
- Activity (RS4-11 [6]): Active
